# Assay results from patent US9931324B2, “Indolizine derivatives and their use in neurodegenerative diseases” (Merck Patent GmbH, priority 2014, dated 2018).
# pIC50: −log10 of the molar value.
# Target: T1, P2X7 (Homo sapiens, UniProt Q99572)
# T1 sequence (Q99572 1-595): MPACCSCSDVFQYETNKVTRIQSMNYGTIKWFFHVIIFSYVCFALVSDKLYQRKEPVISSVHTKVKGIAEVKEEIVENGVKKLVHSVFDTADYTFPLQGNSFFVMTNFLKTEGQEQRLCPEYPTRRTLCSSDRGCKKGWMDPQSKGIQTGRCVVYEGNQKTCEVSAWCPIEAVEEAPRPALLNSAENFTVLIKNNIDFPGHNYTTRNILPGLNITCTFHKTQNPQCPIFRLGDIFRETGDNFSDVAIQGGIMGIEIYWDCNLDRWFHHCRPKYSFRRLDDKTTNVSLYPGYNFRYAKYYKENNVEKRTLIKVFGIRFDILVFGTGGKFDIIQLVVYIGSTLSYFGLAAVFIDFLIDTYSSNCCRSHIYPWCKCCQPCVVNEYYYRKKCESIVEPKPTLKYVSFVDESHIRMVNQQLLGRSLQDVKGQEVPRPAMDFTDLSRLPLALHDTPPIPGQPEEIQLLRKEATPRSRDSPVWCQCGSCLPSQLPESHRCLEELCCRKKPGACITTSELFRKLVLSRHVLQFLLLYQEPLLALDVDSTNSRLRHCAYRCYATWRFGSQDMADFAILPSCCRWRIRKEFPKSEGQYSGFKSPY
# Experiment: IL-1β release assay in THP-1 cells (sandwich ELISA, BzATP-stimulated)
# Type: cell-based
# Design: endogenous in cells; host or cells: THP-1 cells (PMA-differentiated, LPS-primed)
# Conditions: LPS primed, 0.8 mM BzATP, mature IL-1β release, read-out: hTHP-1/IL-ib IC50
# Protocol: IL-1β release assay: The activation of P2X7 by ATP leads to a fast transient activation of cells resulting in influx of Ca^2+ followed by conversion of pro-IL-1β to active IL-1β. The functional activity of P2X7 compounds was measured by the release of mature IL-1β in the culture medium of THP-1 cells, detected by sandwich ELISA. Cells were maintained in complete growth medium (RPMI 1640+10% HI-FCS+2 mM L-glutamine+1× PS). […] THP-1 cells were harvested from the flask in 50 ml by centrifugation for 3 min at 100 g. The cells were resuspended to 2×10^5 cells/ml in medium supplemented with 0.5 μM PMA and incubated. The cells were washed and resuspended to 1.5×10^5 cells/ml in medium complemented with 10 ng/ml LPS, and the cells were primed for 4 h at 37° C., 5% CO2. After addition of 20 μL of prediluted test compounds, blank, standard and control reagents, cells were incubated for a further 20 min at 37° C. and stimulated with 0.8 mM BzATP for 30 minutes. The cells were centrifuged, supernatant was collected and the presence of mature IL-1β was detected using Dual human IL-1b kit following manufacturer's instruction. The tetrahydrobenzodiazepine analogs effectively modulated the activity of P2X7 in the cells as measured by the levels of pro-inflammatory cytokine IL-1β, which is released by the activation of P2X7 receptor.
row,pIC50,Compound
1,7.00 to 8.00,"COCCc1cc(C(=O)NCC2CC(C)CC(F)(F)C2)c2c(Cl)cccn12 (centres unmarked) [Compound 13, 8-chloro-N-((3,3-difluoro-5-methylcyclohexyl)methyl)-3-(2-methoxyethyl)indolizine-1-carboxamide]"
2,6.30 to 7.00,"COCCc1cc(C(=O)NCC2(O)CCCC(F)(F)C2)c2c(C)cccn12 (centres unmarked) [Compound 57, 3-(2-Methoxy-ethyl)-8-methyl-indolizine-1-carboxylic Acid (3,3-difluoro-1-hydroxy-cyclohexylmethyl)-amide]"
3,6.30 to 7.00,"COCCc1cc(C(=O)NC[C@]2(O)CCCC(F)(F)C2)c2c(Cl)cccn12 [Compound 64, 8-Chloro-3-(2-methoxy-ethyl)-indolizine-1-carboxylic Acid ((S)-3,3-difluoro-1-hydroxy-cyclohexylmethyl)-amide]"
4,< 6.00,"COCCc1cc(C(=O)NCCC2(O)CCCC2)c2c(Cl)cccn12 [Compound 59, 8-chloro-N-(2-(1-hydroxycyclopentyl)ethyl)-3-(2-methoxyethyl)indolizine-1-carboxamide]"

# Target: T1, P2X7
# Experiment: Pore permeation assay (YO PRO dye uptake, BzATP-induced)
# Type: cell-based
# Design: expressed in transfected cells; host or cells: HEK293
# Conditions: HEK293 transfected with human P2X7 receptor, BzATP 10 uM, read-out: hP2X7 IC50
# Protocol: Agonist-induced pore formation was determined by measuring cellular uptake of YO PRO fluorescence dye in HEK293 transfected with human P2X7 receptor. A HEK293 cell over expressing human P2X7 was harvested using HQTase reagent to detach the cells from T75 cm flask. The harvested cells are centrifuged @1200 rpm for 5 min at room temperature. The viability of cells was determined by Trypan blue dye and the cells are plated @10,000 cell/well in 50 ul volume in a 384W BD Poly lysine coated plate and incubated overnight at 37 C. After overnight incubation, the culture medium was replaced with 35 ul/well assay buffer (5 mM KCl, 0.1 mM CaCl2, 5 mM Glucose, 10 mM HEPES buffer pH7.4 containing 125 mM NaCl. The serial dilution of compounds was performed using Bravo liquid handling instrument and the compounds were added using Bravo to the cell assay plate starting at 2.5 uM with three dilutions for 10 points. The positive control inhibitor compound was added to column 23. The plate was shaken slowly on a plate shaker for 10 seconds. The cells were incubated with the compound for 20 minutes at room temperature. After the incubation period, YO PRO dye (1 uM) along with BzATP (10 uM) were added to cells at 10 ul/well. The plate was centrifuged at 1000 rpm for 5 seconds and incubated at room temperature for 30 minutes. The uptake of YO PRO dye into the cells was measured using Envision Fluorescence plate reader instrument (Perkin Elmer).
row,Compound,pIC50
1,"O=C(NCC1CCC(F)(F)CC1)c1cc(C2(O)COC2)n2cccc(Cl)c12 [Compound 58, 8-Chloro-3-(3-hydroxy-oxetan-3-yl)-indolizine-1-carboxylic acid (4,4-difluoro-cyclohexylmethyl)-amide]",6.30 to 7.00
2,"CC1CC(O)(CNC(=O)c2cc(C3CCOC3)n3cccc(Cl)c23)CCC1(F)F (centres unmarked) [Compound 44, 8-chloro-N-((4,4-difluoro-1-hydroxy-3-methylcyclohexyl)methyl)-3-(tetrahydrofuran-3-yl)indolizine-1-carboxamide]",6.30 to 7.00
3,"O=C(NCC1(O)CCCC(C(F)(F)F)C1)c1cc(C2CCOC2)n2cccc(Cl)c12 (centres unmarked) [Compound 74, 8-chloro-N-((1-hydroxy-3-(trifluoromethyl)cyclohexyl)methyl)-3-(tetrahydrofuran-3-yl)indolizine-1-carboxamide]",< 6.00
4,"O=C(NCC1(O)CCCC(C(F)(F)F)C1)c1cc(C2CCOCC2)n2cccc(Cl)c12 (centres unmarked) [Compound 28, 8-chloro-N-((1-hydroxy-3-(trifluoromethyl)cyclohexyl)methyl)-3-(tetrahydro-2H-pyran-4-yl)indolizine-1-carboxamide]",6.00 to 6.30
5,"COCCc1cc(C(=O)NCC2(O)CCC(F)(F)CC2)c2c(C)cccn12 [Compound 46, 3-(2-Methoxy-ethyl)-8-methyl-indolizine-1-carboxylic Acid (4,4-difluoro-1-hydroxy-cyclohexylmethyl)-amide]",6.30 to 7.00
6,"COCCc1cc(C(=O)NCC2CCC(F)(F)CC2)c2c(C(F)(F)F)cccn12 [Compound 26, 3-(2-Methoxy-ethyl)-8-trifluoromethyl-indolizine-1-carboxylic Acid (4,4-difluorocyclohexylmethyl)-amide]",6.30 to 7.00
7,"CCOCCc1cc(C(=O)NCC2CCC(F)(F)CC2)c2c(Cl)cccn12 [Compound 19, 8-Chloro-3-(2-ethoxy-ethyl)-indolizine-1-carboxylic Acid (4,4-difluoro-cyclohexylmethyl)-amide]",6.30 to 7.00
8,"COCCc1cc(C(=O)NCC2CCC(F)(F)CC2)c2c(C)cccn12 [Compound 25, 3-(2-Methoxy-ethyl)-8-methyl-indolizine-1-carboxylic Acid (4,4-difluoro-cyclohexylmethyl)-amide]",6.30 to 7.00
9,O=C(NCC1CCC(F)(F)CC1)c1ccn2cccc(Cl)c12 [Compound 42],6.30 to 7.00
10,"O=C(NCC1(O)CCCC(C(F)(F)F)C1)c1cc(C2CCC2)n2cccc(Cl)c12 (centres unmarked) [Compound 4, 8-chloro-3-cyclobutyl-N-((1-hydroxy-3-(trifluoromethyl)cyclohexyl)methyl) indolizine-1-carboxamide]",< 6.00
11,"COCCc1cc(C(=O)NCc2cccc(C(F)(F)F)c2Cl)c2c(Cl)cccn12 [Compound 3, 8-chloro-N-(2-chloro-3-(trifluoromethyl)benzyl)-3-(2-methoxyethyl) indolizine-1-carboxamide]",6.30 to 7.00
12,"COCCc1cc(C(=O)NCC2(O)CCC(F)(F)CC2)c2c(C(F)(F)F)cccn12 [Compound 49, 3-(2-Methoxy-ethyl)-8-trifluoromethyl-indolizine-1-carboxylic Acid (4,4-difluoro-1-hydroxy cyclohexylmethyl)-amide]",6.30 to 7.00
13,"O=C(NCC1CCC(F)(F)CC1)c1cc(C2(O)CCOC2)n2cccc(Cl)c12 (centres unmarked) [Compound 55, 8-chloro-N-((4,4-difluorocyclohexyl)methyl)-3-(3-hydroxytetrahydrofuran-3-yl)indolizine-1-carboxamide]",6.30 to 7.00

# Continued, values first:
row,pIC50,Compound
1,7.00 to 8.00,"COCCc1cc(C(=O)NCC2CC(C)CC(F)(F)C2)c2c(Cl)cccn12 (centres unmarked) [Compound 13, 8-chloro-N-((3,3-difluoro-5-methylcyclohexyl)methyl)-3-(2-methoxyethyl)indolizine-1-carboxamide]"
2,6.30 to 7.00,"COCCc1cc(C(=O)NCC2(O)CCCC(F)(F)C2)c2c(C)cccn12 (centres unmarked) [Compound 57, 3-(2-Methoxy-ethyl)-8-methyl-indolizine-1-carboxylic Acid (3,3-difluoro-1-hydroxy-cyclohexylmethyl)-amide]"
3,7.00 to 8.00,"O=C(NCC1(O)CCC(F)(F)CC1)c1cc(C2CCOCC2)n2cccc(Cl)c12 [Compound 56, 8-chloro-N-((4,4-difluoro-1-hydroxycyclohexyl)methyl)-3-(tetrahydro-2H-pyran-4-yl)indolizine-1-carboxamide]"
4,7.00 to 8.00,"C[C@@H]1CCC[C@](O)(CNC(=O)c2cc(C3CCOCC3)n3cccc(Cl)c23)C1 [Compound 27, 8-chloro-N-(((1R,3R)-1-hydroxy-3-methylcyclohexyl)methyl)-3-(tetrahydro-2H-pyran-4-yl)indolizine-1-carboxamide]"
5,7.00 to 8.00,"COCCc1cc(C(=O)NC[C@]2(O)CCCC(F)(F)C2)c2c(Cl)cccn12 [Compound 64, 8-Chloro-3-(2-methoxy-ethyl)-indolizine-1-carboxylic Acid ((S)-3,3-difluoro-1-hydroxy-cyclohexylmethyl)-amide]"
6,6.30 to 7.00,"CC1CC(O)(CNC(=O)c2cc(C3CCC3)n3cccc(Cl)c23)CCC1(F)F (centres unmarked) [Compound 7, 8-chloro-3-cyclobutyl-N-((4,4-difluoro-1-hydroxy-3-methylcyclohexyl)methyl) indolizine-1-carboxamide]"
7,7.00 to 8.00,"O=C(NCC1(O)CCCC(F)(F)C1)c1cc(CCO)n2cccc(Cl)c12 (centres unmarked) [Compound 68, 8-Chloro-3-(2-hydroxy-ethyl)-indolizine-1-carboxylic Acid (3,3-difluoro-1-hydroxy-cyclohexylmethyl)-amide]"
8,7.00 to 8.00,"C[C@@H]1CCC[C@](O)(CNC(=O)c2cc(C3CCOC3)n3cccc(Cl)c23)C1 (stereo partly drawn) [Compound 38, 8-chloro-N-(((1R,3R)-1-hydroxy-3-methylcyclohexyl)methyl)-3-(tetrahydrofuran-3-yl)indolizine-1-carboxamide]"
9,7.00 to 8.00,"O=C(NCC1(O)CCCC(F)(F)C1)c1cc(C2CCC2)n2cccc(Cl)c12 (centres unmarked) [Compound 20, 8-chloro-3-cyclobutyl-N-((3,3-difluoro-1-hydroxycyclohexyl)methyl) indolizine-1-carboxamide]"
10,7.00 to 8.00,"O=C(NCC1CCC(F)(F)CC1)c1cc(C2CCOCC2)n2cccc(Cl)c12 [Compound 33, 8-chloro-N-((4,4-difluorocyclohexyl)methyl)-3-(tetrahydro-2H-pyran-4-yl)indolizine-1-carboxamide]"
11,7.00 to 8.00,"CC(CO)c1cc(C(=O)NCC2CCC(F)(F)CC2)c2c(Cl)cccn12 (centres unmarked) [Compound 75, 8-Chloro-3-(2-hydroxy-1-methyl-ethyl)-indolizine-1-carboxylic Acid (4,4-difluoro-cyclohexylmethyl)-amide]"
12,7.00 to 8.00,"O=C(NCC1CCC(F)(F)CC1)c1cc(CCF)n2cccc(Cl)c12 [Compound 34, 8-Chloro-3-(2-fluoro-ethyl)-indolizine-1-carboxylic Acid (4,4-difluoro-cyclohexylmethyl)-amide]"
